Experimental data published in patent US9878070B2, “Malleable implants including an oxysterol and methods of use” (Warsaw Orthopedic, Inc., priority 2015, dated 2018).
“Also recorded” adds a separate entry of the source.

Key:
[1] = system: multipotent mesenchymal cells such as M2-10B4 (M2) marrow stromal cells and C3H10T1/2 embryonic fibroblasts; conditions: cited from earlier work
[2] = system: rat two-level spine model; assay: Posterolateral spinal fusion in a rat two-level spine model (radiographs, manual palpation); type: in vivo; conditions: collagen/ceramic matrix wetted with sterile water, bilateral in posterolateral space, 4-week and 8-week timepoints
Protocol: FIG. 6 illustrates uses of a formulation of malleable implants having 20 mg of Oxy133 on each side of the implant, in accordance with the malleable implants described herein. […] A dry composition of a matrix containing Oxy133, collagen and ceramic as described herein was prepared and wetted with sterile water to be implanted in rat spines as shown in FIG. 6. The wetted matrix was cut in half with a razor blade to yield two halves. The two implants were molded into cylindrical shapes prior to insertion and were positioned bilaterally in the posterolateral space of each test subject. Each implant contained 20 mg Oxy133. Radiographs were taken roughly 10 minutes after the procedure, 4 weeks after the procedure, and 8 weeks after the procedure. […] Fusion was tested at 8-week sacrifice by manual palpation. […] A dry composition of a matrix containing Oxy133, collagen and ceramic as described herein was prepared and wetted with sterile water to be implanted in rat spines as shown in FIG. 6. The wetted matrix was cut in half with a razor blade to yield two halves. The two implants were molded into cylindrical shapes prior to insertion and were positioned bilaterally in the posterolateral space of each test subject. Each implant contained 125 mg Oxy133. Radiographs were taken roughly 10 minutes after the procedure, 4 weeks after the procedure, and 8 weeks after the procedure. […]

| SMILES | osteogenic differentiation [1] | bridging bone across the transverse processes of L3-L5 / bone growth (radiographs) ([2]; 20 mg Oxy133 per implant) | bridging bone across the transverse processes of L3-L5 / bone growth (radiographs) ([2]; 125 mg Oxy133 per implant) |
| --- | --- | --- | --- |
| CC(C)CC[C@H](O)[C@@H](C)[C@H]1CC[C@H]2[C@@H]3CC=C4C[C@@H](O)CC[C@]4(C)[C@H]3CC[C@]12C [22(S)-hydroxycholesterol] | induce osteogenic differentiation | – | – |
| CCCCCC[C@](C)(O)[C@H]1CC[C@H]2[C@@H]3C[C@H](O)[C@H]4C[C@@H](O)CC[C@]4(C)[C@H]3CC[C@@]21C [Oxy133, (3S,5S,6S,8R,9S,10R,13S,14S,17S) 17-((S)-2-hydroxyoctan-2-yl)-10,13-dimethylhexadecahydro-1H-cyclopenta[a]phenanthrene-3,6-diol] | – | promoted bridging bone; also recorded: Bone growth in rat test subjects can be seen | promoted bridging bone; also recorded: Bone growth in rat test subjects can be seen |
| CC(C)CC[C@@H](O)[C@@H](C)[C@H]1CC[C@H]2[C@@H]3CC=C4C[C@@H](O)CC[C@]4(C)[C@H]3CC[C@]12C [22(R)-hydroxycholesterol] | induce osteogenic differentiation | – | – |
| CC(C)CCC[C@](C)(O)[C@H]1CC[C@H]2[C@@H]3CC=C4C[C@@H](O)CC[C@]4(C)[C@H]3CC[C@@]21C [20(S)-hydroxycholesterol] | induce osteogenic differentiation | – | – |
